In US20240190872A1, “FABI INHIBITORS FOR GRAM-NEGATIVE PATHOGENS” (THE BOARD OF TRUSTEES OF THE UNIVERSITY OF ILLINOIS, priority 2021, published 2024):
Converted amounts (≈) assume the structure as drawn. Read-outs that look alike come from different tables or passages of the source.

Key:
Hepatocyte stability = assay type: in vitro ADME
[1] = Pharmacokinetic study in neutropenic infected mice
CYP 3A4 = CYP 3A4 (Homo sapiens (Human), UniProt P08684); assay: biochemical
in vitro [2] = details: human, plasma
S. aureus USA300 LAC = assay: Neutropenic mouse thigh infection; assay type: in vivo, CD-1 mice; details: 5 mg/kg, r.o.
Method: FIG. 7. […] A) Neutropenic mouse thigh infection model initiated in female BALB/c mice with A. baumannii AR-88 (1.36×10^5 CFU per mouse intramuscular, left thigh) were treated with vehicle (5 mice) or fabimycin (10 mice) four times a day (75 mg/kg intravenously) and bacterial burden evaluated at 26 h post-infection. B) Neutropenic mouse thigh infection initiated in CD-1 mice with S. aureus USA300 LAC (2.3×10^6 CFU per mouse intramuscular in thigh) were treated with vehicle (8 mice) or FabI inhibitor (8 mice per group) 2 and 7 h post-infection (5 mg/kg retro-orbital IV), […]
(§1) With formulation, MTD, and pharmacokinetic data in hand, the efficacy of fabimycin was evaluated in murine infection models. To start, a comparative assessment was made of fabimycin and Debio-1452-NH3 in two murine neutropenic infection models using a dosing regimen that is at the MTD for Debio-1452-NH3 but below the MTD for fabimycin (three doses, intramuscular, at 50 mg/kg).
(§2) Chart 1. Summary of Fabimycin in vivo models.

HERG = HERG (Homo sapiens (Human), UniProt Q12809); assay: cell-based
K. pneumoniae BAA 2472 = assay: microbe, parasite or virus in culture; assay type: cell-based; details: Klebsiella pneumoniae, BAA2472, read-out: MIC K. pneumoniae BAA 2472, clinical isolate
In short: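 MICs by CLSI broth microdilution in cation-adjusted Mueller-Hinton broth, performed in biological triplicate. Strains: efflux-deficient E. coli ΔtolC (JW5503, KEIO collection) and K. pneumoniae BAA-2472 (ATCC).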

H. sapiens HFF-1 = assay: In-vitro cytotoxicity; assay type: cell-based
in vitro [3] = details: dog
[4] = female, BALB/c, mouse, in vivo, 100 mg/kg
A. baumannii AR-299 = assay: Acute pneumonia (lung) infection; assay type: in vivo, CD-1 mice; details: 50 mg/kg, intramuscular (QD), 48 h
Method: as §1, §2

in vivo = details: female, C57BL/6, mouse, in vivo
Method: Mouse MTD of Debio-1452-NH3. The protocol was approved by the IACUC at the University of Illinois at Urbana-Champaign (Protocol Number:16144). In these studies, 10- to 12-week-old female C57BL/6 mice purchased from Charles River were used. The maximum tolerate dose (MTD) of single compound was determined first. Debio-1452 amine analogues were formulated in 20% sulfobutyl ether β-cyclodextrin in sterile water. Debio-1452-NH3 (1), and compounds 2 and 3 were given by IP injection and mice were monitored for signs of toxicity for 2 weeks (single dose). For multiple dose, the compound was given by daily IP for 5 consecutive days and mice were monitored for signs of toxicity for 1 month. MTD was the highest dosage with acceptable toxicity (e.g. <20% weight loss). Single dose MTDs were initially determined. […] The MTD of Debio-1452-NH3 (1) was used to inform the dosing schedule used in subsequent efficacy studies.

[5] = system: E. coli MG1655 FabI mutant; assay: MIC against fabimycin-resistant E. coli MG1655 colonies (FabI mutants); assay type: cell-based; details: Escherichia coli
Method: Selection of resistant mutants. Resistant mutants were selected via the large inoculum method. Briefly, E. coli MG1655 (1.8×10^9 CFU) were plated on 100 mm plates of LB agar containing 64, 32, and 16 μg/mL Debio-1452-NH3. […] Resistant colonies were confirmed by streaking on selective media with the same concentration of Debio-1452-NH3.

CYP 3A4, sequence (P08684 whole entry): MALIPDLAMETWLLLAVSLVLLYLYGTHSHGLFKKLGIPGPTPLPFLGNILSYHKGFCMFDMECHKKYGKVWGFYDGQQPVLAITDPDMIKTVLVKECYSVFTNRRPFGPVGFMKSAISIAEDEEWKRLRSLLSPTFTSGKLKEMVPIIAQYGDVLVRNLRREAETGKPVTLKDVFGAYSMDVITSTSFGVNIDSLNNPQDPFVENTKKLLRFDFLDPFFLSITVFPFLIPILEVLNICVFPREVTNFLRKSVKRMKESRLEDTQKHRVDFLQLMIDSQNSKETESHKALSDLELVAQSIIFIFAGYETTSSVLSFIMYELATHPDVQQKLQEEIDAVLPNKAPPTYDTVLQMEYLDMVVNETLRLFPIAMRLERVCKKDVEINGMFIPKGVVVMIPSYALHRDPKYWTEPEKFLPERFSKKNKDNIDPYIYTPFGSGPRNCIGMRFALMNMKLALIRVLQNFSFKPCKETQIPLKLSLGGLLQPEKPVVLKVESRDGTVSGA
HERG, sequence (Q12809 whole entry): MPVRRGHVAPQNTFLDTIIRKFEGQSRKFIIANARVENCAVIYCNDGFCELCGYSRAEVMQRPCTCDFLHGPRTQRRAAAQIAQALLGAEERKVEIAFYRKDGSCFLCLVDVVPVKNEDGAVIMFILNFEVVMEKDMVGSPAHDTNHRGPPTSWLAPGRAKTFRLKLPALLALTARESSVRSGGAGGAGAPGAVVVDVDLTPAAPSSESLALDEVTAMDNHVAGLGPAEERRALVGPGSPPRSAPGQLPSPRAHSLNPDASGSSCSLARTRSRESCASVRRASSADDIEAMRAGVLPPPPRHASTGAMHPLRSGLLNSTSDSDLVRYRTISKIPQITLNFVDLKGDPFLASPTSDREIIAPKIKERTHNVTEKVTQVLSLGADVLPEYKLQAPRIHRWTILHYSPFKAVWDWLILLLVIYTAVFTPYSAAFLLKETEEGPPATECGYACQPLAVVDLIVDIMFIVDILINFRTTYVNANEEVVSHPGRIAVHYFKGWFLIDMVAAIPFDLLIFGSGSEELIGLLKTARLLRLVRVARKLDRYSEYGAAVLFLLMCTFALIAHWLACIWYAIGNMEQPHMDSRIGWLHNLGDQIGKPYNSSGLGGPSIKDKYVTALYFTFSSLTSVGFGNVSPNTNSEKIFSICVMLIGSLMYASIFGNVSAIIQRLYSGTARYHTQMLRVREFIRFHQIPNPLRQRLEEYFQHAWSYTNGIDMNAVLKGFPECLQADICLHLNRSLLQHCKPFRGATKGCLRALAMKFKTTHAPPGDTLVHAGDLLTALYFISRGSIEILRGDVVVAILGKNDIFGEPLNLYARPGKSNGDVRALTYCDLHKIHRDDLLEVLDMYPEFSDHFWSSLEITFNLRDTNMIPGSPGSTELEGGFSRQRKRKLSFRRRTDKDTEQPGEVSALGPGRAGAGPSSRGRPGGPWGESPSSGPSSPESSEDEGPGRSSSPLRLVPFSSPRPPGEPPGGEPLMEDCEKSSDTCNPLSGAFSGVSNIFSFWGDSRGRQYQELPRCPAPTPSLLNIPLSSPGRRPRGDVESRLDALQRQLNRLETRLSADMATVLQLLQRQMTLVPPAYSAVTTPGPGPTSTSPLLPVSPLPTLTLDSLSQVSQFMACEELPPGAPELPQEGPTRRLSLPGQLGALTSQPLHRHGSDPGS

For `Cc1c(CN(C)C(=O)/C=C/c2cnc3c(c2)CC[C@H](N)C(=O)N3)oc2ccccc12` [(S)-11, (S,E)-3-(7-amino-8-oxo-6,7,8,9-tetrahydro-5H-pyrido[2,3-b]azepin-3-yl)-N-methyl-N-((3-methylbenzofuran-2-yl)methyl)acrylamide], the “Hepatocyte stability, Mouse” value (Hepatocyte stability) was 6.1 μL/min/million cells, the AUClast ([1]; PLASMA, 75 mg/kg IV) was 45400 ng·h/mL and the CL ([1]; PLASMA, 75 mg/kg IV) was 26.9 mL/min/kg. The Cmax ([1]; PLASMA, 75 mg/kg IV) was 34600 ng/mL, the AUClast ([1]; PLASMA, 100 mg/kg IV) was 69800 ng·h/mL and the CL ([1]; PLASMA, 100 mg/kg IV) was 23.5 mL/min/kg. For the same molecule, the Cmax ([1]; PLASMA, 100 mg/kg IV) was 47300 ng/mL, the AUClast ([1]; THIGH, 75 mg/kg IV) was 65200 ng·h/mL and the CL ([1]; THIGH, 75 mg/kg IV) was 18.9 mL/min/kg. For the same molecule, the Cmax ([1]; THIGH, 75 mg/kg IV) was 33.0 µg/g, the AUClast ([1]; THIGH, 100 mg/kg IV) was 112000 ng·h/mL and the CL ([1]; THIGH, 100 mg/kg IV) was 14.7 mL/min/kg. The Cmax ([1]; THIGH, 100 mg/kg IV) was 60.2 µg/g, the IC50 (CYP 3A4) was 7 µM and the half-life (in vitro [2]) was 23.3 h. For the same molecule, the “log reduction relative to the vehicle” value (S. aureus USA300 LAC) was 2.6 log, the “stability in human plasma (in words)” value (Plasma stability) was “excellent stability” and the IC50 (HERG) was 21.8 µM. For the same molecule, the MIC (K. pneumoniae BAA 2472) was 4 µg/mL (≈ 9.89 µM), the inhibition at 30 µM (H. sapiens HFF-1) was 9.5 ± 3.4% and the IC50 (H. sapiens HFF-1; cytotoxicity) was 112 ± 11 µM. For the same molecule, the efflux ratio (in vitro [3]; MDCK-MDR1) was 9.4, the Papp (in vitro [3]; MDCK-MDR1, MDR1-MDCK Permeability Papp A:B) was 0.6 ×10⁻⁶ cm/s and the Papp (in vitro [3]; MDCK-MDR1, MDR1-MDCK Permeability Papp B:A) was 5.7 ×10⁻⁶ cm/s. The “time concentrations stayed above the MIC for the infectious strain” value [4] was “over 7 hours”, the “log reduction relative to the vehicle” value (A. baumannii AR-299) was 3.9 log and the MTD at 5 d (in vivo) was 200 mg/kg. For the same molecule, the MIC ([5]; MG1655, read-out: MIC, FabI mutant G148A) was 64 to 128 µg/mL (≈ 158 to 316 µM), the MIC ([5]; MG1655, read-out: MIC, FabI mutant H209P) was 61 to 128 µg/mL (≈ 151 to 316 µM) and the “Plasma protein binding, Mouse” value (Plasma protein binding; Mouse) was 96%. For the same molecule, the fraction unbound (Plasma protein binding; mouse, plasma) was 0.04.
